Measured values taken from PMC7894426, “Influence of verapamil on the pharmacokinetics of rotundic acid in rats and its potential mechanism” (Pharmaceutical Biology, 2021).
Like-named read-outs stand apart in the source and are kept apart here.

Tests used:
CYP1A2 = biological target: T1, CYP1A2 (Homo sapiens, UniProt P05177); experiment: Metabolic depletion of RA by rhCYP1A2; assay type: in vitro ADME; details: rhCYP1A2 25 pM, RA 2 µM, 30 min
T1 construct: purchased Research Institute for Liver Disease (Shanghai) Co., Ltd
T1 sequence (P05177 1-516): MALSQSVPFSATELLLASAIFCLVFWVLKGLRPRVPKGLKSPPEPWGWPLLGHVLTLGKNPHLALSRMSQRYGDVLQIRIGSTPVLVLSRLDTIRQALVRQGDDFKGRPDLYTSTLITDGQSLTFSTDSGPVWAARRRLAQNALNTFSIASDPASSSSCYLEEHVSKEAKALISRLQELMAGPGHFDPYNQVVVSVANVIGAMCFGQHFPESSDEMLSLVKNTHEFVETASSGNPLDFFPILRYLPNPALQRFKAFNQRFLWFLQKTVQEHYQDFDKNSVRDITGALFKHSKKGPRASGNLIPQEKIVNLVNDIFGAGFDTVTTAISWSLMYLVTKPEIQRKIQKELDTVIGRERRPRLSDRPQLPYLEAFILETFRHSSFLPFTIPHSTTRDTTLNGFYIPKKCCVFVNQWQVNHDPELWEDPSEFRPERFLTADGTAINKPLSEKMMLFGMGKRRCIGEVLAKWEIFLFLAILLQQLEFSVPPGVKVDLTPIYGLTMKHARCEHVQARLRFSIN
Experimental: (§1) The metabolic stability of RA was evaluated against five rhCYPs (1A2, 2C8, 2C9, 2D6 and 3A4). Incubation was taken place in 0.1 M sodium phosphate buffer (pH 7.4) containing 5 mM MgCl2, 1 mM NADPH, and 25 pM rhCYP enzyme protein at 37 °C in a total volume of 1 mL. After pre-incubated for 5 min, the reactions were started by the addition of RA methanol solution (final concentration of 2 µM). Aliquots of 50 µL incubation solution were collected from the reaction at 0, 5, 10, 20 and 30 min, and quenched with 50 µL ice-cold methanol (containing 0.5% formic acid) and 100 µL ice-cold acetonitrile containing IS (10 ng/mL). The heat-inactivated rhCYP3A4 were used as negative controls. All reactions were conducted in triplicate, followed by LC-MS/MS analysis. Results presented in percentage of drug remaining in incubation starting at 100% at time zero.

CYP2D6 = biological target: T2, CYP2D6 (Homo sapiens, UniProt P10635); experiment: Metabolic depletion of RA by rhCYP2D6; assay type: in vitro ADME; details: rhCYP2D6 25 pM, RA 2 µM, 30 min
T2 construct: purchased Research Institute for Liver Disease (Shanghai) Co., Ltd
T2 sequence (P10635 whole entry): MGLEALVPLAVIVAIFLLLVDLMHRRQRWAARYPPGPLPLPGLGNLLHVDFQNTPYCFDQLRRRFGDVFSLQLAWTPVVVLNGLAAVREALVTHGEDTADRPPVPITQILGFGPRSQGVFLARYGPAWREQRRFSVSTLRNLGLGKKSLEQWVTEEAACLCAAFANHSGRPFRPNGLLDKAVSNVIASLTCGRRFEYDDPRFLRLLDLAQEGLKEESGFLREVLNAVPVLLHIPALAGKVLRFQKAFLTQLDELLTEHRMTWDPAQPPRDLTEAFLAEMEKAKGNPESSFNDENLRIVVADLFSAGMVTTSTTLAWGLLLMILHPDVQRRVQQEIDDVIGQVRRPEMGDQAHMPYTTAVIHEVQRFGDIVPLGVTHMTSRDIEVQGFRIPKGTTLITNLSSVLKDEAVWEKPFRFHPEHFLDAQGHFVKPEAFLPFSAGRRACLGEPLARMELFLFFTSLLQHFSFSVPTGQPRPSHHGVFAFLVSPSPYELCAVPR
Experimental: as §1

CYP2C9 = biological target: T3, CYP2C9 (Homo sapiens, UniProt P11712); experiment: Metabolic depletion of RA by rhCYP2C9; assay type: in vitro ADME; details: rhCYP2C9 25 pM, RA 2 µM, 30 min
T3 construct: purchased Research Institute for Liver Disease (Shanghai) Co., Ltd
T3 sequence (P11712 whole entry): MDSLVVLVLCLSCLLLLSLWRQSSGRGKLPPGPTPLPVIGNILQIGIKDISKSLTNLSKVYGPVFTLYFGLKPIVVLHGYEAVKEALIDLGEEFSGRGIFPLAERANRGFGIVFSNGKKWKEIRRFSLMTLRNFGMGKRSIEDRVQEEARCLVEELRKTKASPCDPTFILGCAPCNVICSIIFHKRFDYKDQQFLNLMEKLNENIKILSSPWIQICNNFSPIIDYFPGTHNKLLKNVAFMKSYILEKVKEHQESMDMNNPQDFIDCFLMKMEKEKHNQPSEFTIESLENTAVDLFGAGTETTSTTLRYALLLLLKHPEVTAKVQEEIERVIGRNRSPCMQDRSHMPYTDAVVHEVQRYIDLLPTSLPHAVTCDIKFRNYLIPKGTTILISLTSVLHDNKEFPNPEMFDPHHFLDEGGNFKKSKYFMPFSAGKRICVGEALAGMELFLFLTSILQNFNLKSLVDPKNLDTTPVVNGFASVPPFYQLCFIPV
Experimental: as §1

P-gp [1] = biological target: P-gp (Homo sapiens, UniProt P08183); experiment: Bidirectional transport across MDCKII-MDR1 cell monolayers (P-gp substrate assessment); details: dog, MDCK-MDR1, pH 7.4
Chain of P-gp (Homo sapiens, UniProt P08183) (P08183 whole entry): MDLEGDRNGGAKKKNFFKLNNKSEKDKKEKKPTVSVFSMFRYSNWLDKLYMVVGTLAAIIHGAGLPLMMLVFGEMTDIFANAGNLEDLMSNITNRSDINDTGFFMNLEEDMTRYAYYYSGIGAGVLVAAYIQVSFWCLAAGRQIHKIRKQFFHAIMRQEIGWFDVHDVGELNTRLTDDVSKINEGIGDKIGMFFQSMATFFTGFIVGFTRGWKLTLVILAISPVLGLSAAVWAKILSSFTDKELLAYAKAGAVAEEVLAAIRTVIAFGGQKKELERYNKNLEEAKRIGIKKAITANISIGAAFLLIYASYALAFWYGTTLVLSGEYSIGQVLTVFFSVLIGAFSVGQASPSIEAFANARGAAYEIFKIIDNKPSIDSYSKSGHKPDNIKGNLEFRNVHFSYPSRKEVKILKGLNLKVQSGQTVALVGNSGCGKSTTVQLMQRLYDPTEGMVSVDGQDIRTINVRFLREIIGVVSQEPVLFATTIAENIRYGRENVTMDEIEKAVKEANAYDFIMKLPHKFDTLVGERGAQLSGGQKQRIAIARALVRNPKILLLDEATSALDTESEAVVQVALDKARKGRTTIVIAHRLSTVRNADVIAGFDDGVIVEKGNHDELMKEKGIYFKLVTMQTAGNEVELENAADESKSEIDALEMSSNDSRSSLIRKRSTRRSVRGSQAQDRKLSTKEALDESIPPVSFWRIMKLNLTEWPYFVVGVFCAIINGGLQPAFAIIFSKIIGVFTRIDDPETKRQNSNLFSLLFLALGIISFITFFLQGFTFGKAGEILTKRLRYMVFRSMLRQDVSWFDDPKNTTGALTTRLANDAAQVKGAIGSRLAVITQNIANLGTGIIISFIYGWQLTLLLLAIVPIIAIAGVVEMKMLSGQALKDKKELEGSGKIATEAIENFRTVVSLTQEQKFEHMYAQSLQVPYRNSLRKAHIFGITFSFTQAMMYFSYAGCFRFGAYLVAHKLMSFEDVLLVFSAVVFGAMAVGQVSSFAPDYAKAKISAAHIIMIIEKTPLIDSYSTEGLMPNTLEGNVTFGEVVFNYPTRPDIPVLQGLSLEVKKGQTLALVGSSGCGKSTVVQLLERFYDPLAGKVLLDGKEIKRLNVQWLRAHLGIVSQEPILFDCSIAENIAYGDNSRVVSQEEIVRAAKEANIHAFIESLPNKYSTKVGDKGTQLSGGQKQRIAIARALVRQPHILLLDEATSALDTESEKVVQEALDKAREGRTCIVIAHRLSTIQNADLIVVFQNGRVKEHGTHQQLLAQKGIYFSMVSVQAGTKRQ
Experimental: MDCKII-Mock and MDCKII-MDR1 cells were given as a gift by Fuji Biomedix Co., Ltd. (Japan) and cultured in DMEM supplemented with 10% FBS and 1% antibiotic (10,000 U/mL penicillin and 10 mg/mL streptomycin). Caco-2 cell line, the human epithelial cell used in this assay, was purchased from the Cell Bank of the Chinese Academy of Sciences (Shanghai, China) and maintained between 30 and 45 passages. It was cultured according to the previous report (Guo et al. [2018]; Xiang et al. [2020]). Briefly, the Caco-2 cells were cultured in DMEM supplemented with 10% FBS, 1% NEAA, and 1% antibiotic (10,000 U/mL penicillin and 10 mg/mL streptomycin). All cells were maintained in a 5% CO2 atmosphere and 90% relative humidity at 37 °C.
For transport studies, the MDCKII-Mock, MDCKII-MDR1, and Caco-2 cells were seeded at a density of 2 × 10^5 cells/mL on Costar Transwell inserts (1.12 cm^2 surface, polycarbonate, 12 mm diameter, 0.4 µm pore size). MDCKII-Mock and MDCKII-MDR1 cells were cultured for 5–7 days in medium, for the first four days, the medium was replaced freshly every two days, and then daily. The Caco-2 cells were cultured for 19–21 days in the medium. For the first 2 weeks, the medium was replaced freshly every two days, and then daily. […] The transepithelial electrical resistance (TEER) of the monolayer cells was measured by Millcell ERS-2 (Millipore, USA), and only the monolayer with TEER exceeding 150 Ω·m^2 (MDCKII-Mock and MDCKII-MDR1 cells) and 400 Ω·m^2 (Caco-2 cells) were used for the transport experiment. The membrane integrity and transport function of MDCKII-Mock, MDCKII-MDR1, and Caco-2 cell monolayers were further verified with Lucifer yellow and Rhodamine-123. The qualified monolayers were used for transport studies.
Before the transport studies, the media in both chambers of the transwell were replaced by warm (37 °C) Hank’s balanced salt solution (HBSS), and then the MDCKII-Mock, MDCKII-MDR1, and Caco-2 cell monolayers were incubated at 37 °C and 5% CO2 for 20 min. […] Our transport studies included absorptive direction transport from the apical (AP) side to the basolateral (BL) side and secretory direction transport from the BL side to the AP side. […] After administration, the transwell plate was placed in a thermostatic oscillator shaking at 60 rpm and 37 °C. At 10, 20, 40 and 60 min, respectively, 50 µL incubating sample aliquot was collected from the receiver chamber and immediately replaced by the same volume of fresh HBSS (37 °C). In addition, the membrane integrity of MDCKII-Mock, MDCKII-MDR1, and Caco-2 cell monolayers were evaluated with Lucifer yellow (30 µM) and TEER value, and the efflux activity of P-gp was validated using a typical P-gp substrate rhodamine-123 (10 µM).
The parameters Papp, RE, and NRE were calculated using the following equation: Papp=(ΔQ/Δt)×[1/(A×C0)]

CYP2C8 = biological target: T4, CYP2C8 (Homo sapiens, UniProt P10632); experiment: Metabolic depletion of RA by rhCYP2C8; assay type: in vitro ADME; details: rhCYP2C8 25 pM, RA 2 µM, 30 min
T4 construct: purchased Research Institute for Liver Disease (Shanghai) Co., Ltd
T4 sequence (P10632 1-490): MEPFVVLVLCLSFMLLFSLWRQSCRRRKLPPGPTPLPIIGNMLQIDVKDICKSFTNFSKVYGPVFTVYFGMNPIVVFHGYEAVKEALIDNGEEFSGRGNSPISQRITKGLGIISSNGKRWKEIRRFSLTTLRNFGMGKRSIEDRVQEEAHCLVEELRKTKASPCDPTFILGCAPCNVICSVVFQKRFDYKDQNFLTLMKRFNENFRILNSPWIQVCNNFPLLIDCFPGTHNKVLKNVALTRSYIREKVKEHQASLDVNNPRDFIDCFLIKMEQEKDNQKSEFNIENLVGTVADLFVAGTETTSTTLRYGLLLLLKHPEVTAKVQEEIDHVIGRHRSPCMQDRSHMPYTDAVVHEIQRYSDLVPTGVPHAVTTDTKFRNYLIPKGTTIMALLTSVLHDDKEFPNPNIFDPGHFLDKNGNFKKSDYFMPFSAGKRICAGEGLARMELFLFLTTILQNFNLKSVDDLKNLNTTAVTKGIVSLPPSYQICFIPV
Experimental: as §1

MDCKII-MDR1 cells = experiment: MTS cell-proliferation assay; assay type: cell-based, canine; details: 25 µM RA
CYP3A4 = biological target: T5, CYP3A4 (Homo sapiens, UniProt P08684); experiment: Metabolic depletion of RA by rhCYP3A4; assay type: in vitro ADME
T5 construct: purchased Research Institute for Liver Disease (Shanghai) Co., Ltd
T5 sequence (P08684 whole entry): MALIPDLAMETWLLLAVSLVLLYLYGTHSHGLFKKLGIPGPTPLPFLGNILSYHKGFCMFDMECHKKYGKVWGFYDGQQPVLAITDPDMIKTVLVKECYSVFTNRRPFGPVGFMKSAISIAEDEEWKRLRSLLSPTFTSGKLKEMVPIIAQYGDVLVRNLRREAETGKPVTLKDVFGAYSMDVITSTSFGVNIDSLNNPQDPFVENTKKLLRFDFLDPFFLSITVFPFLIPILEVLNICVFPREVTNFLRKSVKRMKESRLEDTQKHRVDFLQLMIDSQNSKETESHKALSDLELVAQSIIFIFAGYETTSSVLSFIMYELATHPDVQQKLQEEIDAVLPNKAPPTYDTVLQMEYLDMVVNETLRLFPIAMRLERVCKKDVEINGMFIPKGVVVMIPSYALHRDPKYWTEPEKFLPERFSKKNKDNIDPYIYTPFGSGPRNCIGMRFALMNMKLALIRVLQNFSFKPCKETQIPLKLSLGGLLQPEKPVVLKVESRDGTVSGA
Experimental: as §1

Caco-2 cells = experiment: MTS cell-proliferation assay; assay type: cell-based, human; details: 25 µM RA
[2] = Bidirectional transport across MDCKII-Mock cell monolayers; assay type: in vitro ADME, canine; details: dog, MDCK, MDCKII-Mock, 20 min; for efflux ratio at 20 min: read-out: RE (efflux ratio)
Experimental: (§2) The qualified monolayers were used for transport studies. […] Each experiment was carried out in triplicate.

P-gp [3] = experiment: Bidirectional transport across Caco-2 cell monolayer; assay type: in vitro ADME, human; details: human, pH 7.4, with verapamil 50 µM, Caco-2, 25 µM RA, + 50 µM verapamil
Experimental: as §2

[4] = as above; assay type: in vitro ADME, human; details: human, pH 7.4, Caco-2, 25 µM RA, without verapamil
Experimental: as §2

[5] = pH 7.4, with verapamil 50 µM, + 50 µM verapamil
[6] = 10 min, read-out: RE (efflux ratio)
[7] = 20 min, read-out: RE (efflux ratio)
[8] = 40 min, read-out: RE (efflux ratio)
[9] = 60 min, read-out: RE (efflux ratio)

In the case of `C[C@@H]1CC[C@]2(C(=O)O)CC[C@]3(C)C(=CC[C@@H]4[C@@]5(C)CC[C@H](O)[C@@](C)(CO)[C@@H]5CC[C@]43C)[C@@H]2[C@]1(C)O` [RA, Rotundic acid], the “metabolism of RA (substrate depletion)” value (CYP1A2) is reported as “hardly metabolized”, the RA converted (CYP2D6) is reported as under 30% and the RA converted (CYP2C9) is reported as 41.4%. It also gave a Papp A→B at 20 min (P-gp [1]) of 4.22 ± 0.611 ×10⁻⁶ cm/s, a Papp B→A at 20 min (P-gp [1]) of 12.1 ± 1.55 ×10⁻⁶ cm/s and an efflux ratio at 20 min (P-gp [1]) of 2.87. The RA converted (CYP2C8) was under 30%, the “effect on cell proliferation (MTS)” value (MDCKII-MDR1 cells) was “did not influence the cell proliferation” and the “degradation in negative control” value (CYP3A4; heat-inactivated rhCYP3A4, RA 2 µM) was “No obvious degradation”. The RA converted (CYP3A4; rhCYP3A4 25 pM, RA 2 µM, 30 min) was 88.2%, the “effect on cell proliferation (MTS)” value (Caco-2 cells) was “did not influence the cell proliferation” and the Papp A→B at 20 min [2, 5] was 6.52 ± 0.864 ×10⁻⁶ cm/s. The Papp B→A at 20 min [2, 5] was 6.23 ± 0.895 ×10⁻⁶ cm/s, the efflux ratio at 20 min [2, 5] was 0.955 and the Papp A→B at 20 min ([2]; pH 7.4, without verapamil) was 6.07 ± 0.886 ×10⁻⁶ cm/s. The Papp B→A at 20 min ([2]; pH 7.4, without verapamil) was 6.72 ± 2.03 ×10⁻⁶ cm/s, the efflux ratio at 20 min ([2]; pH 7.4, without verapamil) was 1.11 and the Papp A→B at 10 min, 25 µM (P-gp [3]; 10 min) was 1.07 ± 0.212 ×10⁻⁶ cm/s. The Papp B→A at 10 min, 25 µM (P-gp [3]; 10 min) was 2.73 ± 0.348 ×10⁻⁶ cm/s, the efflux ratio at 10 min, 25 µM (P-gp [3]; [6]) was 2.55 and the Papp A→B at 20 min, 25 µM (P-gp [3]; 20 min) was 2.45 ± 0.707 ×10⁻⁶ cm/s. The Papp B→A at 20 min, 25 µM (P-gp [3]; 20 min) was 5.32 ± 0.306 ×10⁻⁶ cm/s, the efflux ratio at 20 min, 25 µM (P-gp [3]; [7]) was 2.17 and the Papp A→B at 40 min, 25 µM (P-gp [3]; 40 min) was 4.69 ± 0.945 ×10⁻⁶ cm/s. The Papp B→A at 40 min, 25 µM (P-gp [3]; 40 min) was 5.68 ± 0.683 ×10⁻⁶ cm/s, the efflux ratio at 40 min, 25 µM (P-gp [3]; [8]) was 1.21 and the Papp A→B at 60 min, 25 µM (P-gp [3]; 60 min) was 4.71 ± 0.524 ×10⁻⁶ cm/s. It also gave a Papp B→A at 60 min, 25 µM (P-gp [3]; 60 min) of 5.29 ± 0.438 ×10⁻⁶ cm/s, an efflux ratio at 60 min, 25 µM (P-gp [3]; [9]) of 1.12 and an efflux ratio at 25 µM ([4]; 10–60 min, read-out: Papp (BL→AP) relative to Papp (AP→BL)) of 2. It also gave a Papp A→B at 10 min, 25 µM ([4]; 10 min) of 0.468 ± 0.0625 ×10⁻⁶ cm/s, a Papp B→A at 10 min, 25 µM ([4]; 10 min) of 3.25 ± 0.35 ×10⁻⁶ cm/s and an efflux ratio at 10 min, 25 µM [4, 6] of 6.93. For the same molecule, the Papp A→B at 20 min, 25 µM ([4]; 20 min) was 0.776 ± 0.128 ×10⁻⁶ cm/s, the Papp B→A at 20 min, 25 µM ([4]; 20 min) was 5.45 ± 0.806 ×10⁻⁶ cm/s and the efflux ratio at 20 min, 25 µM [4, 7] was 7.02. The Papp A→B at 40 min, 25 µM ([4]; 40 min) was 2.8 ± 0.467 ×10⁻⁶ cm/s, the Papp B→A at 40 min, 25 µM ([4]; 40 min) was 7.13 ± 0.36 ×10⁻⁶ cm/s and the efflux ratio at 40 min, 25 µM [4, 8] was 2.55. It also gave a Papp A→B at 60 min, 25 µM ([4]; 60 min) of 2.84 ± 0.441 ×10⁻⁶ cm/s, a Papp B→A at 60 min, 25 µM ([4]; 60 min) of 6.56 ± 0.941 ×10⁻⁶ cm/s and an efflux ratio at 60 min, 25 µM [4, 9] of 2.31.
